{"source": "patent US5401771A", "about": "“Method of combatting household insects” (priority 1992, dated 1995)", "key": {"housefly": {"test_system": "housefly", "test": "Study of the killing effect on the housefly (direct spraying, Kearns and March chamber)", "type": "in vivo", "conditions": "for KT50 (time where 50% of the insects were killed): 4-day old female houseflies, direct spraying, dose 0.25 g/l, Isopar L with 5% acetone", "procedure": "A. Study of the killing effect on the housefly.\nThe insects used were 4-day old female houseflies and the operation was carried out by direct spraying at a concentration of 0.25 g/1 in a Kearns and March chamber. The tested product was dissolved in Isopar L (petroleum solvent) with 5% acetone. 2 ml of solution were sprayed per second and 50 insects were used per treatment Checks were carried out every minute for 10 minutes, then after 15 minutes. The (KT50) time in minutes where 50% of the insects were killed was determined and the results are in Table I."}, "[1]": {"test_system": "cockroaches (Blattella germanica)", "test": "Study of the knock-down effect on cockroaches (direct spraying)", "type": "in vivo", "conditions": "for percentage of cockroaches knocked down at 100 µg/mL / percentage of cockroaches knocked down at 500 µg/mL: Blattella germanica, 5 min, after 5 minutes, 12-week old males, read-out: KD (percentage of cockroaches knocked down), printed % KILLED; for percentage of cockroaches knocked down at 100 µg/mL: 100 mg/l; for percentage of cockroaches knocked down at 500 µg/mL: 500 mg/l", "procedure": "B. Study of the knock-down effect on cockroaches\nThe test was carried out on 12-week old male cockroaches (Blattella germanica) and the operation was carried out by direct spraying in a 13.5 cm diameter glass chamber. The product tested was dissolved in Isopar and 0.75 ml of solution was sprayed for 2.5 seconds on 20 cockroaches having been placed beforehand in the chamber. The KD (percentage of cockroaches knocked down) after 5 minutes at a dose of 500 mg/1 was determined and the products corresponding to 100% of KD insects at this does were evaluated at a dose of 100 mg/1 by the same protocol and the results are in Table II."}, "rats [2]": {"test_system": "rats", "test": "Acute toxicity on mammals by intravenous route", "type": "in vivo", "conditions": "relative to C (cis E)", "procedure": "(§1) C. Acute toxicity on mammals\n(§2) type: rats, vehicle: PEG 300.\n(§3) The results were expressed in LD50 mg/kg and the results obtained are as follows: […]"}, "[3]": {"test": "Acute toxicity on mammals by intravenous route", "type": "in vivo, rats", "conditions": "rat, in vivo, rats, vehicle PEG 300, read-out: LD50 I.R. (intravenous route)", "procedure": "as §1, §2, §3"}, "rats [4]": {"test_system": "rats", "test": "Acute toxicity on mammals by oral route", "type": "in vivo", "conditions": "relative to C (cis E)", "procedure": "as §1\n(§4) type: rats, vehicle: corn oil.\nas §3"}, "[5]": {"test": "Acute toxicity on mammals by oral route", "type": "in vivo, rats", "conditions": "rat, in vivo, rats, vehicle corn oil, read-out: LD50 O.R. (oral route)", "procedure": "as §1, §4, §3"}, "[6]": {"conditions": "conclusion in words, equivalent notably to C (cis E)"}}}
{"smiles": "C=CCC1=C(C)C(OC(=O)[C@@H]2[C@@H](C=C(C)C)C2(C)C)CC1=O", "note": "(stereo partly drawn) [Bioallethrin]", "values": [{"measurement": "KT50 (time where 50% of the insects were killed)", "setting": "housefly", "value": 10, "unit": "min"}]}
{"smiles": "COC(=O)/C(F)=C/[C@@H]1[C@@H](C(=O)O[C@H](C#N)c2cccc(Oc3ccccc3)c2)C1(C)C", "note": "[Product A, (S) α-cyano-3-phenoxy-benzyl(1R, trans) 2,2-dimethyl-3-[(ΔZ) 2-fluoro-3-oxo-3-methoxy-propenyl]-cyclopropane carboxylate]", "values": [{"measurement": "percentage of cockroaches knocked down at 100 µg/mL", "setting": "[1]", "value": 100, "unit": "%"}, {"measurement": "killing activity on cockroaches", "setting": "[1]; [6]", "value": "good killing activity"}, {"measurement": "toxicity on mammals lower than that of C (cis E), intravenously", "setting": "rats [2]", "value": "at least 20 times"}, {"measurement": "LD50", "setting": "[3]", "value": "~10", "unit": "mg/kg"}, {"measurement": "toxicity on mammals lower than that of C (cis E), orally", "setting": "rats [4]", "value": "at least 20 times"}, {"measurement": "LD50", "setting": "[5]", "value": "> 2000", "unit": "mg/kg"}, {"measurement": "KT50 (time where 50% of the insects were killed)", "setting": "housefly", "value": 2.7, "unit": "min"}, {"measurement": "killing activity on flies", "setting": "housefly; [6]", "value": "good killing activity"}]}
{"smiles": "COC(=O)/C(F)=C\\[C@@H]1[C@@H](C(=O)O[C@H](C#N)c2cccc(Oc3ccccc3)c2)C1(C)C", "note": "[Product B]", "values": [{"measurement": "percentage of cockroaches knocked down at 100 µg/mL", "setting": "[1]", "value": 47, "unit": "%"}, {"measurement": "LD50", "setting": "[3]", "value": "2.5 to 5", "unit": "mg/kg"}, {"measurement": "LD50", "setting": "[5]", "value": "> 200", "unit": "mg/kg"}]}
{"smiles": "COC(=O)/C(F)=C\\[C@H]1[C@@H](C(=O)O[C@H](C#N)c2cccc(Oc3ccccc3)c2)C1(C)C", "note": "[Product C]", "values": [{"measurement": "percentage of cockroaches knocked down at 100 µg/mL", "setting": "[1]", "value": 95, "unit": "%"}, {"measurement": "LD50", "setting": "[3]", "value": "0.1 to 0.5", "unit": "mg/kg"}, {"measurement": "LD50", "setting": "[5]", "value": "~100", "unit": "mg/kg"}, {"measurement": "KT50 (time where 50% of the insects were killed)", "setting": "housefly", "value": 2.7, "unit": "min"}]}
{"smiles": "COC(=O)/C(F)=C/[C@H]1[C@@H](C(=O)O[C@H](C#N)c2cccc(Oc3ccccc3)c2)C1(C)C", "note": "[Product D]", "values": [{"measurement": "percentage of cockroaches knocked down at 500 µg/mL", "setting": "[1]", "value": 90, "unit": "%"}, {"measurement": "LD50", "setting": "[3]", "value": "2.5 to 7.5", "unit": "mg/kg"}, {"measurement": "LD50", "setting": "[5]", "value": "> 200", "unit": "mg/kg"}, {"measurement": "KT50 (time where 50% of the insects were killed)", "setting": "housefly", "value": 3.7, "unit": "min"}]}
{"smiles": "CC(C)=CC1C(C(=O)OCN2C(=O)C3=C(CCCC3)C2=O)C1(C)C", "note": "(stereo not drawn) [TETRAMETHRIN, Tetramethrin]", "values": [{"measurement": "percentage of cockroaches knocked down at 500 µg/mL", "setting": "[1]", "value": 70, "unit": "%"}]}
